ChEMBL document CHEMBL1201862, “PubChem BioAssay data set” (2004)
Activity calls are given as the source filed them.

Assays:
[1] = target: T1, Sentrin-specific protease 8 (Homo sapiens, UniProt Q96LD8); assay type: functional
T1 sequence (Q96LD8 whole entry): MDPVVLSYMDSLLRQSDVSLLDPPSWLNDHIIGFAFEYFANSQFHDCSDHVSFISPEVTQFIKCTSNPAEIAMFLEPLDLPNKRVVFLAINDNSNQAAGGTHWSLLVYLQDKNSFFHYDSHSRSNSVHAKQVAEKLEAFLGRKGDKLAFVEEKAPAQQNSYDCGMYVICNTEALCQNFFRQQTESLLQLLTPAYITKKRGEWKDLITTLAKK

[2] = target: Serine/threonine-protein phosphatase (Homo sapiens, UniProt Q9BPW0); experiment: PP5 phosphatase inhibitors, dose response, biochemical, fluorescence (AID 2395)
Sequence of Serine/threonine-protein phosphatase (Q9BPW0 whole entry): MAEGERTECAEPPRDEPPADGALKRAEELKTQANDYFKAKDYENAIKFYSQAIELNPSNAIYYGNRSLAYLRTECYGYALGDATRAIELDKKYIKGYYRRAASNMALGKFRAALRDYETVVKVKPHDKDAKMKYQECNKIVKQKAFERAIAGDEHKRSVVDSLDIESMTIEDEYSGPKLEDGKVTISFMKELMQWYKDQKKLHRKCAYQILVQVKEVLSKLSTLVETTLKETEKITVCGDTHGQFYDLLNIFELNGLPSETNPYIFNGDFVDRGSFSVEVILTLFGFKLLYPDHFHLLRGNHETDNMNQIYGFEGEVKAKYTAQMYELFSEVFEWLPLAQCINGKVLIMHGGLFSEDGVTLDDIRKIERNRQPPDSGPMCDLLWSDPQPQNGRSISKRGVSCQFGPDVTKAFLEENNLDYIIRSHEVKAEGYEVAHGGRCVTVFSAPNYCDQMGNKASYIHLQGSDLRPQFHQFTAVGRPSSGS

[3] = target: Serine/threonine-protein phosphatase PP1-alpha catalytic subunit (Homo sapiens, UniProt P62136); experiment: PP1 phosphatase inhibitors, dose response, biochemical, fluorescence (AID 2394)
Sequence of Serine/threonine-protein phosphatase PP1-alpha catalytic subunit (P62136 whole entry): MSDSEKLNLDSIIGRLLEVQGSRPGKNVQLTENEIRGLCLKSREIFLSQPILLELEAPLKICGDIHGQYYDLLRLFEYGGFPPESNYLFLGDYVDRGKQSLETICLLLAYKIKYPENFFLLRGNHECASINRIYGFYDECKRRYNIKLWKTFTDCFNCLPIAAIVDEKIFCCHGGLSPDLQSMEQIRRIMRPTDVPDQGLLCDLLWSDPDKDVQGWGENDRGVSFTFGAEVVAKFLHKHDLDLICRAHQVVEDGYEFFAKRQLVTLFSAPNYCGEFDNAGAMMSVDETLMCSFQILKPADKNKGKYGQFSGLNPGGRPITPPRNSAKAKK

[4] = target: T1, Sentrin-specific protease 8; assay type: functional; remark: listed apart in the source
INS1 = experiment: beta cell apoptosis inhibitors, cytokine rescue, dose response, luminescence, retest (AID 449756); assay type: functional, cell-based; conditions: Rattus norvegicus;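 note: cell death triggered by IL-1 beta plus TNF-alpha plus IFN-gamma mixture; protective hits raise ATP signal compared with cytokine alone wells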
[5] = inhibitors of firefly luciferase expression or activity, dose response, H4 neuroglioma cells, luminescence (AID 1990); assay type: functional, cell-based
[6] = inhibitors of SNCA 5'UTR-driven reporter translation, confirmation, H4 neuroglioma cells, luminescence (AID 1988); assay type: functional, cell-based
Streptococcus = experiment: Group A Streptococcus viability loss, dose response, counter-screen for streptokinase expression inhibitor project, luminescence, BacTiterGlo (AID 1915); assay type: functional, organism-based;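 note: potency for reduction of bacterial viability or growth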
Hexokinase HKDC1 = target: T2, Hexokinase HKDC1 (Homo sapiens, UniProt Q2TB90); experiment: HKDC1 hexokinase inhibitors, dose response, biochemical, W721R variant (AID 504729); assay type: functional
T2 sequence (Q2TB90 whole entry): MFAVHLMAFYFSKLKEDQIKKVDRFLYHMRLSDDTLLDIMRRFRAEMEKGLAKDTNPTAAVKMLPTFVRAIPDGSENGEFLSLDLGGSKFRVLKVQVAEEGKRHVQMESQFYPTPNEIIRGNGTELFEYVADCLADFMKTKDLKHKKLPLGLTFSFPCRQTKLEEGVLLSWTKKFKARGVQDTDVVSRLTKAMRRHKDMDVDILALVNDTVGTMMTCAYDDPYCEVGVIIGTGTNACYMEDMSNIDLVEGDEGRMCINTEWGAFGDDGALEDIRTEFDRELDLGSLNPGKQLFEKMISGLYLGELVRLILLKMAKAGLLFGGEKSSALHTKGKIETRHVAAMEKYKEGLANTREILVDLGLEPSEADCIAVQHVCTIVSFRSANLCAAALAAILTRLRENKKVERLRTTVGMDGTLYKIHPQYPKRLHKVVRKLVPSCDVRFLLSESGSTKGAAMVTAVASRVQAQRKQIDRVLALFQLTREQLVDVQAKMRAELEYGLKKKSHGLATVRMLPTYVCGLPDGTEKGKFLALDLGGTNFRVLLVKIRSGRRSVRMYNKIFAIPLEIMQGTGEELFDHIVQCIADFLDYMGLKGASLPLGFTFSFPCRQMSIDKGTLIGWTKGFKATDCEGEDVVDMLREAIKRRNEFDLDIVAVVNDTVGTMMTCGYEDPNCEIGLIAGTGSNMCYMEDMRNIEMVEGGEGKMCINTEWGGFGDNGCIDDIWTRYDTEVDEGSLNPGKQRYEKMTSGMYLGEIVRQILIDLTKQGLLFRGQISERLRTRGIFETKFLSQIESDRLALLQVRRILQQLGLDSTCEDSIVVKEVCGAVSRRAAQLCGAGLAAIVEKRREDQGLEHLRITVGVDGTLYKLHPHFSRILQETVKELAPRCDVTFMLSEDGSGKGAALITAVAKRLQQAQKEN

[7] = target: T3, Long-chain-fatty-acid--AMP ligase FadD28 (Mycobacterium tuberculosis, UniProt P9WQ59); experiment: Fluorescence polarization aasay to screen for inhibitors that compete for the binding of FadD28 to a bisubstrate Measured in Biochemical System Using Plate Reader - 2147-01_Inhibitor_Dose_CherryPick_Activity.; assay type: functional, Mycobacterium tuberculosis H37Rv
T3 sequence (P9WQ59 whole entry): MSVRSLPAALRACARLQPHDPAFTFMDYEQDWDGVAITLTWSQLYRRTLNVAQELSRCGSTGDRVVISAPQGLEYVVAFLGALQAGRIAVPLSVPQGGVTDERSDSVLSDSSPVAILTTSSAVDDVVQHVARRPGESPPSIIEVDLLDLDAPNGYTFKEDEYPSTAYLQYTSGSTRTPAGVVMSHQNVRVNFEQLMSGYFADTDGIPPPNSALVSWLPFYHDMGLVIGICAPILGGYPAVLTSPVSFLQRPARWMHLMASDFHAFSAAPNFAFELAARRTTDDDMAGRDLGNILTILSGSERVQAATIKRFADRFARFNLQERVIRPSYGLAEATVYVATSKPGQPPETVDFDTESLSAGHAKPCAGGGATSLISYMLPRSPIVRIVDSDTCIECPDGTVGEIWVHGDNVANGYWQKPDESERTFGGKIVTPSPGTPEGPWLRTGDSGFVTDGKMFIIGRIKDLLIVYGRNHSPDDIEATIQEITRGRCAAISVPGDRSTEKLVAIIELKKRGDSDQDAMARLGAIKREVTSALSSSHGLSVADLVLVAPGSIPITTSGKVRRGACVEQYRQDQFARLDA

[8] = target: Dual specificity tyrosine-phosphorylation-regulated kinase 1A (Rattus norvegicus, UniProt Q63470); assay type: biochemical, Homo sapiens
[9] = target: T4, Heat shock factor protein 1 (Mus musculus, UniProt P38532); experiment: HSF1 potentiators in luciferase reporter cells, confirmation, cell-based, NIH3T3, luminescence, dose retest (AID 435004); assay type: functional;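 note: stress induced by proteasome inhibitor MG132 added 30 min after compound; luciferase reporter driven by HSF1 response element in NIH3T3 cells; actives raise luminescence as potentiators of the MG132 stress response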
T4 sequence (P38532 whole entry): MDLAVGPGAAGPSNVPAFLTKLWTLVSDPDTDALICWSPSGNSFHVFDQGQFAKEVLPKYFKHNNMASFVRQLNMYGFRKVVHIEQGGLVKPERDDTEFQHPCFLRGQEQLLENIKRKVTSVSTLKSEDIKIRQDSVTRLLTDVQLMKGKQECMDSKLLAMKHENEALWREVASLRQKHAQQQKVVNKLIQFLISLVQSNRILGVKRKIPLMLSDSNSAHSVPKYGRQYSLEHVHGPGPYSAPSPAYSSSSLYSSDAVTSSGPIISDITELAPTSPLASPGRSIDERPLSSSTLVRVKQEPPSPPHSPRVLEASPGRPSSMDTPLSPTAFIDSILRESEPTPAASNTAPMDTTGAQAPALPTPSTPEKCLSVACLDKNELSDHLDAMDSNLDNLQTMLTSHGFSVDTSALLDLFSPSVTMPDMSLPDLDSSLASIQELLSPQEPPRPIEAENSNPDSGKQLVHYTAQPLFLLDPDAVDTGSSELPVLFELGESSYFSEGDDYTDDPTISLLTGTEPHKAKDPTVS

Genome polyprotein = Genome polyprotein (dengue virus type 2, UniProt P29990); experiment: Dengue-2 NS5 methyltransferase inhibitors, primary screen, biochemical, confirmation dose response (AID 588689); assay type: functional
Sequence of Genome polyprotein (P29990 2492-3391 limits assumed): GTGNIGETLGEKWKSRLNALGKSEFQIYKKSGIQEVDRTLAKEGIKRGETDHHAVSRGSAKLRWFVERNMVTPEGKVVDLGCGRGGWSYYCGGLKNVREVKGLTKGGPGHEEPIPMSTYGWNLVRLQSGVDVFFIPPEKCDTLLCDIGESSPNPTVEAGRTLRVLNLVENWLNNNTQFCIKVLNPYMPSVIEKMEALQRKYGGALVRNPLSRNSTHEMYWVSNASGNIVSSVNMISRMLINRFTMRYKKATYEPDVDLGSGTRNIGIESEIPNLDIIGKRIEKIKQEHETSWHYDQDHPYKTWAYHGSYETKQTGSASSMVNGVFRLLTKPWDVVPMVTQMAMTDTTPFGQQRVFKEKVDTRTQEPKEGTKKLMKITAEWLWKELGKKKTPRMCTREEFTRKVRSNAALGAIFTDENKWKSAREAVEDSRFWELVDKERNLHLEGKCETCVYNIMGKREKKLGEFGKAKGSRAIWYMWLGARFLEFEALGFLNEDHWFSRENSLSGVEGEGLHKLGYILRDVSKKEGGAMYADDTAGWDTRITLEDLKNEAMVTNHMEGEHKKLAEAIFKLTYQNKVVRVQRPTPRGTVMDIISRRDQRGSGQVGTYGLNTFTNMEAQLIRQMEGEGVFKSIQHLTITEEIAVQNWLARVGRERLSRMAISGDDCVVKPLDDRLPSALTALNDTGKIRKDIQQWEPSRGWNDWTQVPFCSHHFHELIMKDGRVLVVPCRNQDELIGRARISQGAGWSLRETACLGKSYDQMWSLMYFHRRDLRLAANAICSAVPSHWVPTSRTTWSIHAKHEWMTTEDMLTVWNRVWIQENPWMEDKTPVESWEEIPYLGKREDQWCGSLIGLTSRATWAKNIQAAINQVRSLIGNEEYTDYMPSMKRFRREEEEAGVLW

**Q.** For COc1ccc(NC(=S)Nc2ccc3nsnc3c2)cc1, which IC50 [1] is on record?
**A.** 2.3 µM (active)

**Q.** What about the IC50 [2] of the same compound?
**A.** > 2.48 µM (active)

**Q.** And the IC50 [3]?
**A.** > 67 µM (not active)

**Q.** And the IC50 [4]?
**A.** 6.61 µM (active)

**Q.** Which results are given for CC(C)(C)c1cc[n+](C2=C([N-]S(=O)(=O)c3ccccc3)C(=O)c3ccccc3C2=O)cc1?
**A.** AC50 (INS1): 14.5 µM (active); EC50 [5]: > 120 µM (not active); EC50 [6]: 9.04 µM (active); EC50 (Streptococcus): 5.15 µM (active)

**Q.** For O=C1C=C(Nc2ccccc2C(=O)O)c2ccccc2C1=O, which IC50 (Hexokinase HKDC1) is on record?
**A.** 12.4 µM (active)

**Q.** What about the AC50 [7] of the same compound?
**A.** > 100 µM (inactive)

**Q.** And the AC50 [8]?
**A.** 6.25 µM (active)

**Q.** And the EC50 [9]?
**A.** 133 µM (active)

**Q.** What about the IC50 (Genome polyprotein) of the same compound?
**A.** > 100 µM (active)
